Assays:
[1] = tested on: IBABP-L promoter; assay: IBABP-L promoter luciferase reporter in HCT 116 cells; format: cell-based, human; conditions: 25 ng/ml for 5 hr, HCT116 cells
Experimental: To verify that NF-κB binds the response element and drives the expression of IBABP-L, a number of studies were performed with deletions and mutations of the promoter linked to a reporter gene (PGL3-Basic Luciferase), as shown in FIG. 18. These studies were performed in HCT 116 colon cancer cells, which have elevated expression of IBABP-L. The region containing the putative NF-κB binding motif (−1563/+78) was amplified from human genomic DNA by PCR. Deletion constructs of this promoter were made through PCR or restriction enzyme digestion. The G C mutation was made through site-directed mutagenesis. The wild type and modified promoters were inserted into PGL3 vector containing firefly Luciferase (Luc) reporter (Promega). Reporter vectors were constructed to either delete the entire putative NF-κB binding motif, or mutate the most conserved “G” to “C” within this motif. The wild type promoter and modified reporters were introduced into HCT 116 cells, and luciferase activity was analyzed at 24 hr.
As shown in FIGS. 19A-C, a functional analysis of the IBABP-L promoter was performed. […] The luciferase activity was measured in 24 h and normalized to the Renilla signal in the absence of the IBABP-L promoter. […] Luciferase activity was measured in 24 hr and normalized. pRL-CMV was included in every transfection. […]

[2] = tested on: IBABP-L; assay: Regulation of expression of IBABP-L in Caco-2 cells, quantitative RT-PCR; format: cell-based, human; conditions: 24 h
Experimental: (§1) The expression of IBABP-L and IBABP was measured by quantitative RT-PCR. The mRNA copy number of each variant is normalized to the expression the housekeeping gene ARPP0. Values in the figure represent the average of three experiments with each replicate performed in duplicate.
(§2) To determine the relative expression levels of IBABP-L and IBABP, a two-step quantitative RT-PCR procedure was used. In the first step, complementary DNA (cDNA) was synthesized from total RNA. […] In the second step, quantitative PCR (QPCR) was carried out on a Mx 3000P Real-Time PCR System (Stratagene, La Jolla, Calif.) using a solution containing diluted cDNA (1:20; 2.0 μl), 1×SYBR Green PCR Master Mix (Applied Biosystems, Foster City, Calif.), and primers for IBABP-L, IBABP, or ARPP0 (0.25 μM). […]
(§3) Regulation of expression of the IBABP variants in Caco-2 cells. […] Cells were harvested, cellular RNA was isolated using the RNeasy Mini Kit (Qiagen) according to manufacturer instruction, and expression of IBABP variants was determined by QPCR as described above.
(§4) Bile acids differentially regulate the variants of IBABP. […] Caco-2 cells were treated with either chenodeoxycholic acid (CDCA), deoxycholic acid (DCA), or 9cRA, and the relative expression of transcripts encoding IBABP-L and IBABP was measured by quantitative RT-PCR (FIG. 10).

[3] = molecular target: T1, BAR (FXR, NR1H4) (Homo sapiens, UniProt Q96RI1); conditions: gene-selective BAR modulator; cited from earlier work
T1 sequence (Q96RI1 1-486): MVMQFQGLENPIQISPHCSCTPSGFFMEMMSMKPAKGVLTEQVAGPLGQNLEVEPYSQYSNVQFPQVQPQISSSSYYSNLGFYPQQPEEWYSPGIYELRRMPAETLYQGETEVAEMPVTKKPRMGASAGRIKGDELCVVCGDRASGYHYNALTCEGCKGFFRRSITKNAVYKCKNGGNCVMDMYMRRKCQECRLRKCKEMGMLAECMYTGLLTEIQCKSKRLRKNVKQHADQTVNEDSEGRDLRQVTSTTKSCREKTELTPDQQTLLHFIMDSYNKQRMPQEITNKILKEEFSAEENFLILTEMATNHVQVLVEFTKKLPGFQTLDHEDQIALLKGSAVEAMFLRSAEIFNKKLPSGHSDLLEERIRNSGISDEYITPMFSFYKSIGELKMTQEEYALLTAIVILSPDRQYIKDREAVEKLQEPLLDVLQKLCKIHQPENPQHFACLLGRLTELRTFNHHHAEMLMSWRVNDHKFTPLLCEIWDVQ

[4] = tested on: IBABP; assay: Regulation of expression of IBABP in Caco-2 cells, quantitative RT-PCR; format: cell-based, human; conditions: 100 nM, 24 h
Experimental: as §1, §2, §3, §4

In the case of tumor necrosis factor α [TNFα], the “transcription activity of the wild type IBABP-L promoter” value [1] is reported as “increased” and the “transcription activity of the mutated IBABP-L promoter” value ([1]; G to C mutation in NF-κB motif) is reported as “not the mutated promoter”.
For C[C@H](CCC(=O)O)[C@H]1CC[C@H]2[C@@H]3[C@H](O)C[C@@H]4C[C@H](O)CC[C@]4(C)[C@H]3CC[C@]12C [CDCA, chenodeoxycholic acid], the “effect on expression of IBABP-L” value ([2]; 100 μM, normalized to ARPP0) was “without effect”.
For CCCCCCOc1c(\C(C)=C/C=C/C(C)=C/C(=O)O)cc(C(C)C)cc1C(C)C [AGN34], the “activity on CYP7A1” value [3] is listed as “agonist”, the “activity on IBABP” value [3] is listed as “antagonist” and the “activity on SHP” value [3] is listed as “neutral”.
For CC1=C(/C=C/C(C)=C\C=C\C(C)=C\C(=O)O)C(C)(C)CCC1 [9cRA, 9-cis-retinoic acid], the “effect on expression of IBABP” value [4] was “up-regulated” and the “effect on expression of IBABP-L” value ([2]; 100 nM) was “without effect”.

Reference: patent US20090074785A1, “Compositions and methods for treatment of colorectal cancer” (priority 2007, published 2009)
